Assay results taken from patent publication US20240009359A1, “DRUG ELUTING ELASTIC BANDS AND LIGATION” (MEMORIAL SLOAN KETTERING CANCER CENTER, priority 2020, published 2024).
Entries after “also recorded” stand apart in the source; their conditions may differ.

Assays:
[1] = Drug release from rubber bands in physiological medium; type: physicochemical; settings: pH 7.9, 37 degrees Celsius; for Drug release from rubber band: released drug measured over time
Method: To see whether the lidocaine loaded within the rubber is dispersed evenly, a larger lidocaine loaded rubber slab was prepared and cut into pieces from either the middle or the edges of the slab. The amount of drug released was measured (see FIG. 9K) and normalized to the amount of rubber (see FIG. 9L).

[2] = system: HL-1 cardiomyocytes; experiment: Calcium imaging of HL-1 cardiomyocytes exposed to lidocaine released from rubber bands; type: cell-based; settings: HL-1 cardiomyocytes before and after exposure to released lidocaine
Method: In accordance with various potential embodiments, and with reference to FIGS. 11A-11C, the released lidocaine was tested on cardiomyocytes. Lidocaine is known to have a cardiotoxic effect in high concentrations, and accordingly, HL-1 cardiomyocytes beating on a plate were imaged using calcium imaging before and after exposure to the released lidocaine (FIG. 11A).

[3] = system: MCF-7 cells; experiment: Activity of salicylic acid released from rubber on MCF-7 cell viability; type: cell-based; settings: drug loaded in rubber and released into the media in presence of MCF-7 cells
Source text: In order to verify that the released drugs are still active after elution from the rubber, salicylic acid was loaded and released into the media in the presence of MCF-7 cells.

Structure (SMILES)	Drug release from rubber band [1]	other results
CCCCN1CCCCC1C(=O)Nc1c(C)cccc1C (centres unmarked) [bupivacaine]	released	
Cc1cc(C2CCCCC2)n(O)c(=O)c1 [ciclopirox olamine]	released	
CN(C)CCOC(c1ccccc1)c1ccccc1.Cn1c(=O)c2[nH]c(Cl)nc2n(C)c1=O [dimenhydrinate]	released	
COC1=CC(=O)C[C@@H](C)[C@]12Oc1c(Cl)c(OC)cc(OC)c1C2=O [griseofulvin]	released	
CCN(CC)CC(=O)Nc1c(C)cccc1C [lidocaine]		Time at which release peaked ([1]; different loading quantities): ~5 days; Calcium activity (calcium waves, fluorescence pattern) [2]: inhibit spontaneous calcium waves; also recorded: much lower level of calcium activity; Rate of contraction [2]: rate of contraction dropped
CN1C(C(=O)Nc2ccccn2)=C(O)c2ccccc2S1(=O)=O [piroxicam]	released	
O=C(O)c1ccccc1O [salicylic acid]	released	Cell viability compared to untreated cells [3]: effective in reducing cell viability
OB1OCc2cc(F)ccc21 [tavabarole]	released	
